Source: patent publication US9284302B2, “Cyclobutyl benzimidazoles as PDE 10 inhibitors” (Merck Sharp & Dohme Corp., priority 2012, dated 2016)

Molecular target: human PDE10A2 (Homo sapiens (Human), UniProt Q9Y233)
Test: PDE10 fluorescence polarization (IMAP FP) inhibition assay
Assay type: biochemical
Settings: apparent inhibition constant; FAM-labeled cAMP substrate 50 nM, room temperature; read-out: PDE10a Ki
Procedure: The activity of the compounds in accordance with the present invention as PDE10 inhibitors may be readily determined without undue experimentation using a fluorescence polarization (FP) methodology that is well known in the art (Huang, W., et al., J. Biomol Screen, 2002, 7: 215).
In a typical experiment the PDE10 inhibitory activity of the compounds of the present invention was determined in accordance with the following experimental method. PDE10A2 was amplified from human fetal brain cDNA (Clontech, Mountain View, Calif.) using a forward primer corresponding to nucleotides 56-77 of human PDE10A2 (Accession No. AF127480, Genbank Identifier 4894716), containing a Kozak consensus sequence, and a reverse primer corresponding to nucleotides 2406-2413 of human PDE10A2 (Accession No. AF127480, Genbank Identifier 4894716). Amplification with Easy-A polymerase (Stratagene, La Jolla, Calif.) was 95° C. for 2 minutes followed by thirty three cycles of 95° C. for 40 seconds, 55° C. for 30 seconds, and 72° C. for 2 minutes 48 seconds. Final extension was 72° C. for 7 minutes. The PCR product was TA cloned into pcDNA3.2-TOPO (Invitrogen, Carlsbad, Calif.) according to standard protocol. AD293 cells with 70-80% confluency were transiently transfected with human PDE10A2/pcDNA3.2-TOPO using Lipofectamine 2000 according to manufacturer specifications (Invitrogen, Carlsbad, Calif.). Cells were harvested 48 hours post-transfection and lysed by sonication (setting 3, 10×5 sec pulses) in a buffer containing 20 mM HEPES, 1 mM EDTA and protease inhibitor cocktail (Roche). Lysate was collected by centrifugation at 75,000 xg for 20 minutes. Supernatant containing the cytoplasmic fraction was used for evaluation of PDE10A2 activity. The fluorescence polarization assay for cyclic nucleotide phosphodiesterases was performed using an IMAP® FP kit supplied by Molecular Devices, Sunnyvale, Calif. (product #R8139). IMAP® technology has been applied previously to phosphodiesterase assays (Huang, W., et al., J. Biomol Screen, 2002, 7: 215). Assays were performed at room temperature in 384-well microtiter plates with an incubation volume of 20.2 μL. Solutions of test compounds were prepared in DMSO and serially diluted with DMSO to yield 8 μL of each of 10 solutions differing by 3-fold in concentration, at 32 serial dilutions per plate. […] 0% of inhibition is determined by using DMSO (1% final concentrations). […]

Chain of human PDE10A2 (Q9Y233 267-1055): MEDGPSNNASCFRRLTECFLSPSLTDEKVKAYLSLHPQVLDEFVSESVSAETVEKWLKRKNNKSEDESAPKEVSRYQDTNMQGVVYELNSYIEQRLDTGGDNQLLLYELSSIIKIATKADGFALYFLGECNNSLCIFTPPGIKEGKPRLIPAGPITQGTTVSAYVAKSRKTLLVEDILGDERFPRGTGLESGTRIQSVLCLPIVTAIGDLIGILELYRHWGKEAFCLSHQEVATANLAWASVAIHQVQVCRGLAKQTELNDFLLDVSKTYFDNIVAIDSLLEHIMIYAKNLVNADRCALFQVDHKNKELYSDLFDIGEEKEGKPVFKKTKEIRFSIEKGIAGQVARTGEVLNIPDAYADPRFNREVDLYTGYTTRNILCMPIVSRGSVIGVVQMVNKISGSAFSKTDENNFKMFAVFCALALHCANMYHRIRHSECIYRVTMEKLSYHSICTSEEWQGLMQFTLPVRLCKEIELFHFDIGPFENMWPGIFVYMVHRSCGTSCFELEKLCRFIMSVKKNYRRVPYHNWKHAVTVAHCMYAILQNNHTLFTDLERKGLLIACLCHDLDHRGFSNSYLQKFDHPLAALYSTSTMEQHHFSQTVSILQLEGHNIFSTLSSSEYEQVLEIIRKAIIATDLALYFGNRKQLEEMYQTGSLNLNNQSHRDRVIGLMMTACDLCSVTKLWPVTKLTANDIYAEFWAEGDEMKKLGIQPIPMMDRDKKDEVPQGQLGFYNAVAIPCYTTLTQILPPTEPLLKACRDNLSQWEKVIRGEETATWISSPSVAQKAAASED

SMILES	Ki
Cc1nc(-n2nc(C)nc2C)cc([C@H]2C[C@@H](c3nc4ccccc4n3C)C2)n1 [Example 3, 2-((cis)-3-(6-(3,5-dimethyl-1H-1,2,4-triazol-1-yl)-2-methylpyrimidin-4-yl)cyclobutyl)-1-methyl-1H-benzo[d]imidazole]	2.8 nM
Cc1nc(-n2nc(C)nc2C)cc([C@H]2C[C@H](c3nc4ccccc4n3C)C2)n1 [Example 4, 2-((trans)-3-(6-(3,5-dimethyl-1H-1,2,4-triazol-1-yl)-2-methylpyrimidin-4-yl)cyclobutyl)-1-methyl-1H-benzo[d]imidazole]	4.7 nM
Cc1nc(-n2nc(C)nc2C)cc(C2(F)CC(c3nc4ccccc4n3C)C2)n1 (stereo not shown) [Example 2, 2-(3-(6-(3,5-dimethyl-1H-1,2,4-triazol-1-yl)-2-methylpyrimidin-4-yl)-3-fluorocyclobutyl)-1-methyl-1H-benzo[d]imidazole]	88 nM
Cc1nc(-n2nc(C)nc2C)cc(C2(O)CC(c3nc4ccccc4n3C)C2)n1 (stereo not shown) [Example 1, 1-(6-(3,5-dimethyl-1H-1,2,4-triazol-1-yl)-2-methylpyrimidin-4-yl)-3-(1-methyl-1H-benzo[d]imidazol-2-yl)cyclobutanol]	> 75 nM
